Measured values from article PMC6522524 (Nature Communications, 2019).
Where “and” joins values, the source holds several entries; their conditions need not be identical. Identical values can stand only once. Counter-ions that a name gives are not always drawn. Like-named read-outs stand apart in the source and are kept apart here.

Assays:
[1] = system: HBV (ayw subtype, genotype D) replicon in HepG2.2.15 cells; test: microbe, parasite or virus in culture; assay type: cell-based, Hepatitis B virus; details: for activity at 10 µM / inhibition at 1 µM: Hepatitis B virus
[2] = system: HBsAg in HepG2 cells transfected with pHBV1.2×; test: Secreted HBsAg ELISA, HepG2 cells transfected with pHBV1.2×; assay type: cell-based, Hepatitis B virus; details: 10 μM, 6 days
Method: (§1) Secreted HBsAg (f, i respectively) was quantified by ELISA.
(§2) An HBsAg ELISA kit (KA0286, Abnova) was used to quantify HBsAg protein. Briefly, culture media were incubated in individual wells of the capture plates for 2 h. After washing, horseradish peroxidase-labeled rabbit anti-HBV surface antibody was added, followed by incubation for an additional 2 h. The substrate solution was added for 15–60 min and absorbance at 450 nm was measured.

[3] = system: HBV (pHBV1.2× adr) in transfected HepG2 cells; test: microbe, parasite or virus in culture; assay type: cell-based, Hepatitis B virus; details: 10 μM, 6 days
in vitro [4] = details: human, Cell viability(%), HBV 1.2x adr, 10 μM, 6 days
[5] = system: HBV (pHBV1.2× adr) in transfected HepG2 cells; test: microbe, parasite or virus in culture; assay type: cell-based, Hepatitis B virus; details: 10 μM, 6 days; remark: listed apart in the source
[6] = system: HBV transcripts in HepG2 cells transfected with pHBV1.2×; test: HBV transcription in HepG2 cells transfected with pHBV1.2×, quantitative RT-PCR; assay type: cell-based, Hepatitis B virus; details: Suppl. fig. 12c, ETV, Control = 1
Method: Quantitative RT-PCR with primers that detect three HBV regions (R1, R2, and R3, Supplementary Table 1) was used to measure HBV transcription. This RT-PCR detects pgRNA and precore RNA (3.5 kB), two HBV surface-encoding RNAs (2.5 kB and 2.1 kB), and HBx-encoding RNA (0.7 kB)[55]. PCR conditions were 95 °C for 10 min initially, then 50 cycles of 95 °C for 30 s, 60 °C for 60 s and 72 °C for 30 s, and finally 1 cycle of 95 °C for 60 s, 55 °C for 30 s and 95 °C for 30 s. […]
a Schematic depiction of the R1, R2, and R3 regions of the HBV genome that were targeted by quantitative RT-PCR to quantitate the transcription of pgRNA, two HBV surface RNAs, and HBx RNA. […]
c Region 3 transcription in ciclopirox-treated (b) HepG2.2.15 cells and (c) HepG2 cells transfected with the pHBV1.2× plasmid. d The promoter analysis of ciclopirox-treated HepG2 cells transfected with pGL3/HBV pgRNA promoter or pGL3/HBV sRNA promoter. The data shown in (b – d) represent two

[7] = system: HepG2 cells transfected with pHBV1.2×; details: HBV 1.2x adr, 10 μM, 6 days, Sample1-3
[8] = system: HBsAg in HepG2.2.15 cells; test: Secreted HBsAg ELISA, HepG2.2.15 cells; assay type: cell-based, Hepatitis B virus; details: 6 days
Method: as §1, §2

in vitro [9] = details: human, Cell viability(%), HepG2.2.15, 10 μM, 6 days
[10] = system: HBV pgRNA promoter, HBV sRNA promoter; test: Promoter analysis in HepG2 cells transfected with pGL3/HBV pgRNA promoter or pGL3/HBV sRNA promoter; assay type: cell-based, Hepatitis B virus; details: ETV
Source text: (§3) a Schematic depiction of the R1, R2, and R3 regions of the HBV genome that were targeted by
(§4) quantitative RT-PCR to quantitate the transcription of pgRNA, two HBV surface RNAs, and HBx RNA.
(§5) pGL3/HBV pgRNA promoter or pGL3/HBV sRNA promoter. The data shown in (b – d) represent two

[11] = system: HBV pgRNA/precore RNA in HepG2.2.15 cells; assay type: cell-based, Hepatitis B virus
Method: Fig. 1 Effect of FDA-approved compounds on HBV replication. a Schematic depiction of the primary screening analysis. HepG2.2.15 cells, which were stably transfected with HBV replicons, were treated with 978 FDA-approved drugs (1 μM) for 3 days. Entecavir (ETV) (1 μM) served as positive control. […] Quantitative RT-PCR was performed after 6 days of incubation. d Effect of the 19 candidates on intracellular HBV capsid assembly. Huh-7 cells were transfected with pCDNA3-Core and exposed after 12 h to the 19 candidates (1 μM) for 36 h. The cells were lysed and assembled HBV core particles were isolated by sucrose step gradient ultracentrifugation, resolved on 1% agarose gels, and subjected to immunoblot analysis with anti-HBV core antibody.
Quantitative RT-PCR with primers that detect three HBV regions (R1, R2, and R3, Supplementary Table 1) was used to measure HBV transcription. This RT-PCR detects pgRNA and precore RNA (3.5 kB), two HBV surface-encoding RNAs (2.5 kB and 2.1 kB), and HBx-encoding RNA (0.7 kB)[55]. PCR conditions were 95 °C for 10 min initially, then 50 cycles of 95 °C for 30 s, 60 °C for 60 s and 72 °C for 30 s, and finally 1 cycle of 95 °C for 60 s, 55 °C for 30 s and 95 °C for 30 s.
as §3, §4, §5

[12] = ref https://www.drugbank.ca/; cited from earlier work
[13] = HepG2.2.15, 72 h, 1 μM, 3 days, ETV =100%, read-out: % of inhibition (ETV =100%), initial screening (3days)
[14] = HepG2.2.15, 144 h, 6 days, ETV =100%, read-out: % of inhibition (ETV =100%), confirmation (6days)

For `C=C1[C@H](CO)[C@@H](O)C[C@@H]1n1cnc2c(=O)[nH]c(N)nc21` [ETV, entecavir], the “HBV DNA particle secretion was reduced by” value ([1]; 1 μM, 3 days' incubation) was 42.1 ± 14.1%, the activity at 10 µM ([1]; HepG2.2.15, 144 h, HepG2.2.15 (figure 4d), 10 μM, 6 days, read-out: Relative secreted HBV DNA level (Folds), AVERAGE) was 1.36% and the activity at 10 µM ([1]; HepG2.2.15, 144 h, HepG2.2.15, 10 μM, 6 days, read-out: Relative secreted HBV DNA level (Folds), individual samples) was 1.96%. For the same compound, the “Relative secreted HBsAg (Folds), AVERAGE” value ([2]; HBV 1.2x adr (figure 4i)) was 0.996 Folds, the “Relative secreted HBsAg (Folds), individual samples” value ([2]; HBV 1.2x adr, Sample1-2) was 1.007 Folds and 0.9855 Folds and the “Relative intracellular HBV DNA level (Folds), AVERAGE” value ([3]; HBV 1.2x adr (figure 4h)) was 0.1393 Folds. For the same compound, the “Relative intracellular HBV DNA level (Folds), individual samples” value ([3]; HBV 1.2x adr, Sample1-3) was 0.1084 Folds and 0.1053 Folds and 0.1147 Folds, the viability at 10 µM (in vitro [4]; AVERAGE) was 99.6% and the viability at 10 µM (in vitro [4]; individual samples, Sample1-3) was 99.3%. The “Relative secreted HBV DNA level (Folds), AVERAGE” value ([5]; HBV 1.2x adr (figure 4g)) was 0.03628 Folds, the “Relative secreted HBV DNA level (Folds), individual samples” value ([5]; HBV 1.2x adr) was 0.356 Folds and 6.706e-5 Folds and 0.0005754 Folds and the “Relative HBV transcript R1, Sample1-3” value ([6]; R1, single samples) was 0.9971 and 1.095 and 1.085. For the same compound, the “Relative HBV transcript R2, AVERAGE” value ([6]; R2) was 1.083, the “Relative HBV transcript R3, AVERAGE” value ([6]; R3) was 0.953 and the “Relative HBV transcript R3, Sample1-3” value ([6]; R3, single samples) was 0.9903 and 0.9758 and 0.8935. The “Cell viability(%), individual samples” value [7] was 100.151% and 99.4005%, the “Relative secreted HBsAg (Folds), AVERAGE” value ([8]; HepG2.2.15 (figure 4f), 10 μM) was 0.9837 Folds and the “Relative secreted HBsAg (Folds), individual samples” value ([8]; HepG2.2.15, 10 μM, Sample1-2) was 0.9818 Folds and 0.9857 Folds. The viability at 10 µM (in vitro [9]; AVERAGE) was 101%, the viability at 10 µM (in vitro [9]; individual samples, Sample1-3) was 101% and the “Relative pgRNA promoter activity, AVERAGE” value ([10]; pgRNA promoter, Control = 1) was 1.039. The “Relative pgRNA promoter activity, Sample1-3” value ([10]; pgRNA promoter, single samples) was 0.9019 and 1.084 and 1.13, the “Relative sRNA promoter activity, AVERAGE” value ([10]; sRNA promoter, Control = 1) was 1.037 and the “Relative sRNA promoter activity, Sample1-3” value ([10]; sRNA promoter, single samples) was 0.9017 and 1.283 and 0.9275. For the same compound, the “Relative HBV pgRNA/precore RNA level (Folds), AVERAGE” value ([11]; Fig. 1c, 6 days) was 0.9573 Folds, the “Relative HBV transcript R1, Sample1-3” value ([11]; Suppl. fig. 12b, R1, single samples, ETV, Control = 1) was 0.9164 and 1.011 and 1.015 and the “Relative HBV transcript R2, AVERAGE” value ([11]; Suppl. fig. 12b, R2, ETV, Control = 1) was 1.028. For the same compound, the “Relative HBV transcript R3, AVERAGE” value ([11]; Suppl. fig. 12b, R3, ETV, Control = 1) was 0.9829 and the “Relative HBV transcript R3, Sample1-3” value ([11]; Suppl. fig. 12b, R3, single samples, ETV, Control = 1) was 0.9794 and 0.8641 and 0.8947.

For `CCOCC(O)COc1ccc(NC(=O)CC[S+](C)C)cc1` (stereo not shown) [Suplatast tosylate], the “pKa value (acidic)” value [12] is given as 12.7, the inhibition at 1 µM [1, 13] is given as 125% and the inhibition at 1 µM [1, 14] is given as 76.2%. The “Relative HBV pgRNA/precore RNA level (Folds), AVERAGE” value ([11]; Fig. 1c, 6 days) was 1.034 Folds.

In the case of `CN1C(C(=O)Nc2ccccn2)=C(O)c2sccc2S1(=O)=O` [Tenoxicam], the “pKa value (acidic)” value [12] is listed as 2.21, the “pKa value (basic)” value [12] is listed as 4.26 and the inhibition at 1 µM ([1]; HepG2.2.15, 72 h, read-out: % of inhibition (ETV =100%), initial screening (3days)) is listed as 110%. The inhibition at 1 µM ([1]; HepG2.2.15, 144 h, read-out: % of inhibition (ETV =100%), confirmation (6days)) was 79.4% and the “Relative HBV pgRNA/precore RNA level (Folds), AVERAGE” value [11] was 0.04619 Folds.

In the case of `OC(CNCC(O)C1CCc2cc(F)ccc2O1)C1CCc2cc(F)ccc2O1` (stereo not shown) [Nebivolol], the “pKa value (acidic)” value [12] is listed as 13.52, the “pKa value (basic)” value [12] is listed as 8.9 and the inhibition at 1 µM [1, 13] is listed as 103%. The inhibition at 1 µM [1, 14] was 78.4% and the “Relative HBV pgRNA/precore RNA level (Folds), AVERAGE” value ([11]; Fig. 1c, 6 days) was 0.9531 Folds.

For `Clc1ccc(C(Cn2ccnc2)OCc2c(Cl)cccc2Cl)c(Cl)c1` (stereo not shown) [Isoconazole nitrate], the “pKa value (basic)” value [12] is given as 6.77, the inhibition at 1 µM [1, 13] is given as 148% and the inhibition at 1 µM [1, 14] is given as 41.4%. For the same compound, the “Relative HBV pgRNA/precore RNA level (Folds), AVERAGE” value ([11]; Fig. 1c, 6 days) was 1.034 Folds.

For `O=C1NC(=O)C(c2ccccc2)(c2ccccc2)N1` [Phenytoin sodium], the “pKa value (acidic)” value [12] is given as 9.47, the inhibition at 1 µM [1, 13] is given as 124% and the inhibition at 1 µM [1, 14] is given as -2.4%. For the same compound, the “Relative HBV pgRNA/precore RNA level (Folds), AVERAGE” value ([11]; Fig. 1c, 6 days) was 0.7935 Folds.

In the case of `OC(CCN1CCCC1)(c1ccccc1)C1CCCCC1` (stereo not shown) [Procyclidine HCl], the “pKa value (basic)” value [12] is listed as 9.45, the inhibition at 1 µM [1, 13] is listed as 112% and the inhibition at 1 µM [1, 14] is listed as 70.4%. The “Relative HBV pgRNA/precore RNA level (Folds), AVERAGE” value ([11]; Fig. 1c, 6 days) was 1.056 Folds.
